Experimental findings from patent US20080188449A1, “Treatment of Conditions Caused By Calcium Abnormalities” (priority 2004, published 2008) are described below.

The subject of data set [1] is HeLa cells. The data set is described as follows: Viability of parvalbumin-GFP transfected HeLa cells. Format: cell-based. To be noted: 100 nM. The source says: To investigate further the role of calcium in triptolide function Applicants utilized a system to buffer intracellular calcium levels. Various GFP-parvalbumin (PV) fusion proteins can be specifically localized to either the nucleus or the cytoplasm through a nuclear localization or exclusion signal (NLS or NES, respectively) (Pusl, et al., 2002, J Biol Chem 277, 27517-27527). Parvalbumin has two EF-hand calcium binding domains and can efficiently reduce the availability of free calcium in the cell (Pauls, et al., 1996, Biochim Biophys Acta 1306, 39-54). HeLa cells were transiently transfected with the GFP vector control, NES-PV-GFP, or NLS-PV-GFP in calcium containing media and efficient expression of each construct was determined by GFP localization (FIG. 4A). Normal cell growth was first assessed throughout 48 hours with each of the constructs. […] For triptolide experiments, cells were transfected and allowed to express the construct for 24 hours before the addition of 100 nM triptolide. After 24 and 48 hours of treatment, cells were assessed for viability. […]
All parvalbumin-GFP constructs and control vectors (Pusl, et al., 2002, J Biol Chem 277, 27517-27527) were a gift of Anton Bennett (Yale University). […] Cell viability was assessed at 24 and 48 hours post triptolide addition by morphology and trypan blue dye exclusion.

The next data set concerns adult animal. The data set is described as follows: Tolerability in adult animal. The format is in vivo. From the text: Since ADPKD has no proven therapeutic cure or treatment, Applicants believe it is encouraging as a preliminary step to observe triptolide-mediated growth arrest and attenuation of cyst progression. […] In summary, Applicants have established a novel pathway for triptolide mediated calcium release in a polycystin-2 dependent pathway that can reduce cystic burden in the kidneys of PKD mice. It is hopeful therefore that if fully developed, triptolide would be an ideal candidate for drug therapy as its history as an herbal therapy has already shown it to be well tolerated in humans.

In data set [2] the test system is HeLa cells. Nature of the data set: HeLa cell viability by trypan blue dye exclusion. The format is cell-based. Here is the method: Since extracellular calcium concentration can influence triptolide binding Applicants sought to determine if the presence of calcium influences the rate of triptolide-mediated apoptosis. To first establish the growth rate of HeLa in media±calcium, cell counts were performed over a 72 hour time course. Although calcium-free media caused cells to detach more easily, the overall growth rates were similar where cell doubling occurred every 24 hours on average (FIG. 3B). For triptolide experiments, cells were initially equilibrated in medium±calcium for 16 hours before the addition of 100 nM triptolide. Cell death was assessed by trypan blue dye exclusion at 24, 48, and 72 hours post drug treatment. In the presence of calcium-containing medium, triptolide induced at least 50% cell death by 24 hours with this trend continuing through later time points (FIG. 3C).
Applicants' results have implicated reversible binding of triptolide to a potential binding protein or complex that can be regulated by calcium. To understand if triptolide function is further separable between cell death and NFκB inhibition, Applicants examined the effect of concentration on these two endpoints. HeLa cells were cultured in the presence of 0, 10, 25, 50, or 100 nM of triptolide and separately assessed for cell death or the ability to suppress NFκB transactivation promoted by TNF-α. Following 24-48 hours of culture, viable cells were recovered and counted. Following 24 hours, triptolide concentrations from 25-100 nM caused greater than 50% of the cells to undergo cell death as assessed by detachment, clumping and the failure to exclude trypan blue dye. […] This is consistent with previous studies showing that low doses of triptolide cause cell cycle arrest rather than apoptosis (Kiviharju, et al., 2002, Clin Cancer Res 8, 2666-2674).
Based upon Applicants' studies examining the concentration dependent effect of triptolide on the two measured biological endpoints, cell death and transcriptional repression, Applicants wanted to determine how modulating triptolide's structure may also discriminate between the two pathways. For cell viability assays, HeLa cells were incubated with 0, 0.1, 1, or 10 μM of each analog or triptolide for 24 hours and then counted using trypan blue dye exclusion. […] NFκB transcriptional inhibition was measured using the κB-luciferase assay as previously described following 5 hours of incubation with each analog (0-10 μM) and TNF-α addition.
HeLa cells were incubated in DMEM or SMEM (Gibco) media+10% FBS and maintained at 37° C. in 5% CO2 for all experiments. HeLa cell viability was assessed by trypan blue dye exclusion, as well as by morphological examination (non-viable cells were rounded and detached from culture plate).

`CC(C)[C@]12O[C@H]1[C@@H]1O[C@]13[C@]1(O[C@H]1C[C@H]1C4=C(CC[C@@]13C)C(=O)OC4)[C@@H]2O` [triptolide, Triptolide]: the cell death result in the data set with HeLa cells [1] (all transfection conditions, 48 hours) is recorded as “complete cell death”; in the data set with HeLa cells [2] (0.1 μM, 24 hours, analog study), 60%; in the data set with HeLa cells [2] (0.1 μM, 24 hours, analog study, listed as Triptolide) it was “greater than 50%”; with HeLa cells [2] (100 nM, calcium-containing medium, by 24 hours) it was “at least 50%”; with HeLa cells [2] (25-100 nM, 24 hours), “greater than 50%”; in the data set with HeLa cells [2] (25-100 nM, 48 hours), “nearly all cells treated within this concentration range of triptolide died”. The “cells rounded and no longer viable” value with HeLa cells [1] (control GFP vector or NLS-PV-GFP, 24 hours) was 50%. In the data set with adult animal, the “dose that did not adversely affect health” value is “greater than 0.15 mg/kg/day”. Also, the cell growth entry in the data set on HeLa cells [2] (10 nM) is “efficient at arresting cell growth”. Besides, in the data set with HeLa cells [2] (1 or 10 μM versus 0.1 μM, 24 hours), the “cell death at the higher concentrations” value is “no significant increase”. Moreover, in the data set on HeLa cells [2] (HeLa cells), the “minimal incubation time required for commitment to apoptosis” value is listed as “three to four”.
